10 compounds from BindingDB's records for doi:10.7270/Q2CF9NKD (Burnham Center For Chemical Genomics, 2010) can be followed below.

Each structure is given as a SMILES string.

The target of the experiment is Intestinal-type alkaline phosphatase (Homo sapiens, UniProt P09923). Kind of experiment: human IAP activators, dose response, biochemical, luminescent, uHTS hits, set 2 (AID 488817).
Intestinal-type alkaline phosphatase, sequence (P09923 whole entry): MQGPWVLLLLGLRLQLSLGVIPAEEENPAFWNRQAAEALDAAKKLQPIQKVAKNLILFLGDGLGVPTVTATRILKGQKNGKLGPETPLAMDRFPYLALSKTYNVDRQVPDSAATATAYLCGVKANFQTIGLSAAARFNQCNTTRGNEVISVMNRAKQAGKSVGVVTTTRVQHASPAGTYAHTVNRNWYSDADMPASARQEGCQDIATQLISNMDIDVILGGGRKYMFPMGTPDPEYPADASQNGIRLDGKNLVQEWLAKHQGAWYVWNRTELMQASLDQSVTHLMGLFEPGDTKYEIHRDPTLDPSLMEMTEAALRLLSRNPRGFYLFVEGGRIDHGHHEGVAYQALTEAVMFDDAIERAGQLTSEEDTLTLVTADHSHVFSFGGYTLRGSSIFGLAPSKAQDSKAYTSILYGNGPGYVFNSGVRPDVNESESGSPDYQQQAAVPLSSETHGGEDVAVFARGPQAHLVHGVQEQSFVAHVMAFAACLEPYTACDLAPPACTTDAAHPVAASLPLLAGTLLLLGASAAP

With `Cc1c(C(=O)NN=Cc2ccc(O)cc2O)[nH][nH]c1=O`, a half-maximal response (EC50) required 11.3 µM.
On to `CCc1ccc(CN=Nc2ncnc3nc[nH]c23)cc1` [MLS000419199], for which the 50% effective concentration (EC50) came to 12.5 µM.
`C=c1[nH]n(-c2nc3ccccc3[nH]2)c(=O)c1=CN(C)C` [(4E)-2-(1H-benzimidazol-2-yl)-4-(dimethylaminomethylidene)-5-methyl-pyrazol-3-one] showed an EC50 of 23.2 µM.
In turn, `CCOC(=O)c1c(C)[nH]c(C(=O)N/N=C/C2C=C([N+](=O)[O-])C=CC2=O)c1C` (stereo not given) [ethyl 2,4-dimethyl-5-[[[(E)-(3-nitro-6-oxocyclohexa-2,4-dien-1-ylidene)methyl]amino]carbamoyl]-1H-pyrrole-3-carboxylate] had a concentration giving a half-maximal response (EC50) of 11.4 µM.
The compound `O=Nc1[nH]c(=O)c(CC(=O)c2ccccc2)nc1NO` [SMR000539633] came in with an EC50 of 8.77 µM.
In turn, `O=C(Nn1c(O)csc1=S)C(=O)Nn1c(O)csc1=S` [SMR000349781] came in with a half-maximal effective concentration (EC50) of 12.4 µM.
As for `Cc1cc(Br)ccc1SCC(=O)OCC(=O)C(C#N)c1nc2ccccc2[nH]1` (stereo not given) [2-[(4-bromo-2-methylphenyl)thio]acetic acid [3-cyano-3-(1,3-dihydrobenzimidazol-2-ylidene)-2-oxopropyl] ester], the EC50 was 27.5 µM.
The figure for `O=c1c2ccccc2nc(N=NCc2c(O)ccc3ccccc23)n1O` [SMR000145705] is 31 µM; for `Cn1c(C(C#N)C(=O)c2ccc(Br)s2)nc2ccccc21` (stereo not given) [MLS001167394] it is 60 µM.
The figure for `COc1cccc(C=NNC(=O)c2[nH][nH]c(=O)c2C)c1O` [N'-[(E)-(5-methoxy-6-oxidanylidene-cyclohexa-2,4-dien-1-ylidene)methyl]-4-methyl-5-oxidanylidene-1,4-dihydropyrazole-3-carbohydrazide] is 9.07 µM.

What is called EC50 is the concentration needed to bring the measured effect to its halfway point. A low value points to an effect from little substance.
